Test results as given in patent US6663881B2 (priority 1993, dated 2003).

What was measured:
[1] = test system: Vascular smooth muscle (BO54) cells; type: cell-based, baboon
[2] = test system: Vascular smooth muscle cells
[3] = test system: Vascular smooth muscle (BO54) cells; type: cell-based, baboon; remark: listed apart in the source
[4] = test system: balloon traumatized left carotid artery; details: rat, in vivo
[5] = test system: balloon traumatized left carotid artery; assay: Periadventitial delivery of taxol crystals in pluronic gel, balloon traumatized rat carotid artery; type: in vivo, rats
Protocol: To further evaluate the efficacy of crystalline taxol to inhibit neointimal formation in rats, four groups of 5-6 adult male rats underwent balloon trauma of the left carotid artery followed immediately by periadventitial delivery of 1, 0.1, 0.01 or 0 mg of taxol crystals in 500 mg of a pluronic polymer in gel matrix. Fourteen days later, the rats were sacrificed, serum was collected and their carotid arteries were processed for histologic and morphometric analysis.

[6] = MTT activity in human liver slices after 24 hour exposure; type: cell-based
Protocol: The cytotoxity of ^3H-cytochalasin B and its subsequent metabolites was also assessed by evaluating dose dependent changes in mitochondrial function by monitoring 3-[4, 5-dimethylthiazol-2yl]-2, 5-diphenyltetrazolium bromide (MTT) activity following a 24 hour exposure of human liver slices to the test agent (Table 10).

[7] = Stability and metabolism in saline, human plasma and human whole blood (HPLC); type: in vitro ADME; details: 20 hours at 37° C.
Protocol: To determine the metabolism of ^3H-cytochalasin B in human blood, ^3H-cytochalasin B (8 μg/ml) was dissolved in saline; 1:1 dilution of saline and human plasma; or 1:1 dilution of saline and human whole blood.

[8] = Biodistribution of 3H-cytochalasin B i.v. (radioactivity); type: in vivo, BALB/c mice
Protocol: ^3H-cytochalasin B (2 μg; 30 μCi/μg) was injected i.v. into BALB/c mice having urinary bladders that had been externally ligated. Animals were sacrificed at 15 minutes, 30 minutes, 2 hours or 16 hours post-injection. Organs were removed, blotted, weighed, air dried and assayed for radioactivity. Fifty −73% of the total injected dose was accounted for in the tissues sampled (blood, heart, brain, muscle, bone, lung, liver, spleen, stomach, kidney, intestines, and urinary bladder). Clearance of ^3H-cytochalasin B from the blood was extremely rapid with less than 1% of the injected dose in circulation by 15 minutes.

[9] = Human liver slices distribution and metabolism study (HPLC); type: in vitro ADME
Protocol: ^3H-cytochalasin B at a dose of 1.5 or 8 μg/ml was mixed with viable or non-viable human liver slices and media, and the amount of ^3H-cytochalasin B in media or tissue assessed by HPLC (Tables 8 and 9).

[10] = test system: balloon traumatized swine femoral arteries; assay: Tissue distribution of crystalline 3H-cytochalasin B after local delivery; parameters: species or system Yorkshire crossbred swine; details: in vivo
Protocol: The in vivo tissue distribution of cytochalasin B administered in crystalline form was evaluated in balloon traumatized swine femoral arteries after local delivery. A femoral artery of a Yorkshire crossbred swine was balloon traumatized by overinflation and rotation of a Vascu-Flo™ Silicone embolectomy catheter. Balloon trauma was immediately followed by intravascular delivery of 10 μg/ml ^3H-cytochalasin B crystals (Sigma Chemical Co., St. Louis, Mo.) in saline (saturated) for three minutes under 1 atm of pressure. Blood flow was resumed in the artery for five minutes prior to sacrifice of the animal.

[11] = 1.5 μg/ml, Media/viable tissue, 1 h
[12] = 1.5 μg/ml, Media/viable tissue, 1 h at 37° C.
[13] = 1.5 μg/ml, Media/viable tissue, 4 h
[14] = 8 μg/ml, Media/boiled tissue, 4 h
[15] = 8 μg/ml, Media/boiled tissue, 24 h

Cc1ccc(C(=O)Nc2ccc(S(=O)(=O)O)c3cc(S(=O)(=O)O)cc(S(=O)(=O)O)c23)cc1NC(=O)c1cccc(NC(=O)Nc2cccc(C(=O)Nc3cc(C(=O)Nc4ccc(S(=O)(=O)O)c5cc(S(=O)(=O)O)cc(S(=O)(=O)O)c45)ccc3C)c2)c1 [suramin]
DNA synthesis inhibition compared with protein synthesis inhibition [1]: to a greater extent than they inhibited protein synthesis

CN[C@@H]1C[C@H]2O[C@@](C)([C@@H]1OC)n1c3ccccc3c3c4c(c5c6ccccc6n2c5c31)C(=O)NC4 [staurosporin]
minimum effective dose (MED), DNA assay [1]: 1 ng/mL
cytotoxicity grade at in vitro effective dosage [2]: 2
minimum effective dose (MED), protein synthesis assay [3]: 100 ng/mL

CC(=O)O[C@H]1C(=O)[C@@]2(C)[C@H]([C@H](OC(=O)c3ccccc3)[C@]3(O)C[C@H](OC(=O)[C@H](O)[C@@H](NC(=O)c4ccccc4)c4ccccc4)C(C)=C1C3(C)C)[C@]1(OC(C)=O)CO[C@@H]1C[C@@H]2O [taxol]
morphometry vs untreated controls [4]: statistically significantly larger luminal areas and no neointimal proliferation
post-surgical weight gain [4]: delay in post-surgical weight gain
neointimal area and neointimal/medial ratio vs control ([5]; 0.01 mg): reduction in their neointimal area and neointimal/medial ratio
toxicity ([5]; 0.01 mg): no
neointimal area and neointimal/medial ratio vs control ([5]; 0.1 mg): reduction in their neointimal area and neointimal/medial ratio
toxicity ([5]; 0.1 mg): minimal
toxicity ([5]; 1.0 mg): limited

^3H-cytochalasin B
cytotoxicity of agent or its metabolites [6]: not cytotoxic
metabolism ([7]; 8 μg/ml in 1:1 saline and human plasma): not metabolized
metabolism ([7]; 8 μg/ml in 1:1 saline and human whole blood): metabolized by human whole blood
metabolism ([7]; 8 μg/ml in saline): not metabolized
injected dose in circulation ([8]; by 15 minutes): less than 1%
tissues with significant retention of 3H activity ([8]; mouse, in vivo): Only liver, skeletal muscle and intestines showed significant retention
total reactivity in the tissue [9]: less than 20%
total reactivity present in the media [9]: greater than 80%
% Metabolized of Extractable Activity [9, 11]: 43.0%
% Non extractable Activity [9, 11]: 0.5%
% Activity in Media [9, 12]: 84%
% Activity in Tissue [9, 12]: 16%
% Activity in Media [9, 13]: 84%
% Activity in Tissue [9, 13]: 16%
% Metabolized of Extractable Activity [9, 13]: 77.0%
% Metabolized of Extractable Activity ([9]; 1.5 μg/ml, Media/viable tissue, 24 h): 98.7%
% Metabolized of Extractable Activity ([9]; 8 μg/ml, Media Only, 1 h): 5%
% Metabolized of Extractable Activity ([9]; 8 μg/ml, Media Only, 24 h): 5%
% Non extractable Activity ([9]; 8 μg/ml, Media/boiled tissue, 1 h): 0.5%
% Extractable Activity [9, 14]: 99.0%
% Metabolized of Extractable Activity [9, 14]: 5%
% Non extractable Activity [9, 14]: 1%
% Activity in Media [9, 15]: 87%
% Activity in Tissue [9, 15]: 13%
% Metabolized of Extractable Activity [9, 15]: 5%
% Non extractable Activity [9, 15]: 1.3%
% Metabolized of Extractable Activity ([9]; 8 μg/ml, Media/viable tissue, 1 h): 24.2%
% Metabolized of Extractable Activity ([9]; 8 μg/ml, Media/viable tissue, 4 h): 59.4%
% Metabolized of Extractable Activity ([9]; 8 μg/ml, Media/viable tissue, 24 h): 98.0%
tissue localization [10]: localized predominantly to the adventitia

O=[N+]([O-])OCC(CO[N+](=O)[O-])O[N+](=O)[O-] [nitroglycerin]
DNA synthesis inhibition compared with protein synthesis inhibition [1]: to a greater extent than they inhibited protein synthesis

CC(=O)O[C@@H]1/C=C\[C@@](C)(O)C(=O)[C@@H](C)C/C=C\[C@H]2[C@H](O)C(C)=C(C)[C@H]3C(Cc4ccccc4)NC(=O)[C@]132 (stereo partly shown) [cytochalasin C]
MED, DNA synthesis assay [1]: 0.01 µg/mL
